Like-named read-outs stand apart in the source and are kept apart here.
How the values were obtained:
[1] = system: PC-3 prostate cancer cells; assay: Analysis of radiolabeled metabolites in PC-3 prostate cancer cells; assay type: cell-based, human; settings: PC-3 cells, 2 hr
Procedure: The primary hydrophilic metabolites of choline in mammals is phosphocholine and betaine. […] The HPLC system used a microprocessor-controlled solvent delivery system and a silica column (Adsorbosphere Silica (10μ), 250×4.6 mm, Alltech, Deerfield, Ill.). The column was kept at room temperature and the flow rate was maintained at 1.5 ml/min. […] Fractions of effluent were collected every 0.5 min and first counted for ^18F-radioactivity in a well-counter for experiments involving [^18F]FCH, then transferred to scintillation vials for counting for ^14C-radioactivity. The column was equilibrated for 6 min with Buffer A before injection. After the injection (<100 μl), Buffer A was delivered for 6 min which eluted betaine (3 min) from the column. […] Re-equilibration of the column with 100% A for 6 min preceded the next injection.
Methanol (1 ml) was added to each well and the cells were lysed by maintaining the temperature at 37° C. for 30 min. The methanol phase was transferred to a glass test tube. Each well was rinsed with an additional 0.5 ml methanol which was added to the original fraction. To each tube, 3 ml chloroform and 1 ml 0.25 M sodium phosphate (pH=4.5) were added to separate lipids from water-soluble molecules. After vigorous mixing of the samples for 1 min, the two phases were separated, and a 0.5 ml aliquot of each phase was counted for ^18F and ^14C radioactivity. The aqueous phase was further analyzed for water-soluble metabolites using the gradient-HPLC method previously described.
Cells incubated in 6-well plates for 2 hr with radiotracers were thoroughly washed to remove all extracellular radioactivity. The cells were lysed in methanol and the methanol solution added to chloroform to solubilize all lipophilic metabolites.

[2] = system: mice with PC-3 xenografts
Procedure: Body weight and tumor volume were measured weekly and tumor volume (mm3) was calculated using the formula S2×L/2, where S and L represent the small and large diameters of the tumor, respectively.
A prescribed duration of time was allowed before procurement of heart, liver, lung, blood, kidney, bone (femur), brain (whole), prostate gland, tumor, bladder, and skeletal muscle. The tissues were weighed, and counted for ^18F in a gamma counter, then dissolved in Solvable (Dupont, Boston Mass.) and counted for ^14C in a liquid scintillation counter. For the bladder, the percentage of the injected dose in the urine was determined. For all other tissues, radiotracer uptake was calculated as: […]

yeast choline kinase = target: T1, yeast choline kinase (Saccharomyces cerevisiae, UniProt P20485); assay: In vitro phosphorylation by yeast choline kinase; assay type: biochemical; settings: 1 μM choline, 25 mU/ml yeast choline kinase, 23° C., 10 min, n = 5
T1 sequence (P20485 1-582): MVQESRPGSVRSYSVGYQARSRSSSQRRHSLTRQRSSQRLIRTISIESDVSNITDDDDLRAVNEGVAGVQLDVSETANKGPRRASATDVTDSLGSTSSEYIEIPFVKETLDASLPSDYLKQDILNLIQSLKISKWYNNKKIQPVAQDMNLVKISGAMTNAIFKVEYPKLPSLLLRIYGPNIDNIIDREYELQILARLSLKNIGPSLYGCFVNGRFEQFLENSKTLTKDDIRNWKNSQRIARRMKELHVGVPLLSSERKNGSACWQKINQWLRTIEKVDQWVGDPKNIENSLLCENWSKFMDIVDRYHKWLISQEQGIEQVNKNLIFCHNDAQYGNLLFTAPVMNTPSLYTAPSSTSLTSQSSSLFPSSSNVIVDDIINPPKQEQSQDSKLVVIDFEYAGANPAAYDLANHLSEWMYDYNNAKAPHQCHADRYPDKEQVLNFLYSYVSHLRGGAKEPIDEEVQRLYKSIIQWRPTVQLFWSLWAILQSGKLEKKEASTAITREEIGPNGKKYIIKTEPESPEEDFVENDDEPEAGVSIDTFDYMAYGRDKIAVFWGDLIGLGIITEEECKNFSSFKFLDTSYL
Procedure: The test tube was gently agitated throughout the incubation period. The reaction was stopped by placing the tube in a boiling water bath for 2 min. To serve as controls, some samples were placed directly in the boiling water bath after addition of all substrates. […] The percentage of radioactivity converted to the phosphorylated form was calculated.

With `C[N+](C)(C)CCO` [CH, [methyl-^14C]Choline, reference compound] the “oxidation in the cancer cells (betaine / fluorobetaine by HPLC)” value [1] was “negligible”, the “Uptake in Blood” value ([2]; 10 min) was 2.1 ± 0.3 % dose kg/100 g and the “Uptake in Brain” value ([2]; 10 min) was 1.4 ± 0.7 % dose kg/100 g. The “Uptake in Heart” value ([2]; 10 min) was 20.3 ± 7.2 % dose kg/100 g, the “Uptake in Kidney” value ([2]; 10 min) was 99.0 ± 12.9 % dose kg/100 g and the “Uptake in Liver” value ([2]; 10 min) was 52.3 ± 11.9 % dose kg/100 g. For the same compound, the “Uptake in Lung” value ([2]; 10 min) was 26.0 ± 9.6 % dose kg/100 g, the “Uptake in Prostate” value ([2]; 10 min) was 9.0 ± 6.8 % dose kg/100 g and the “Uptake in Skeletal Muscle” value ([2]; 10 min) was 4.7 ± 1.7 % dose kg/100 g. For the same compound, the “Uptake in Tumor” value ([2]; 10 min) was 3.2 ± 1.8 % dose kg/100 g, the “Uptake in Blood” value ([2]; 30 min) was 1.5 ± 0.9 % dose kg/100 g and the “Uptake in Brain” value ([2]; 30 min) was 1.0 ± 0.8 % dose kg/100 g. The “Uptake in Heart” value ([2]; 30 min) was 9.7 ± 1.9 % dose kg/100 g, the “Uptake in Kidney” value ([2]; 30 min) was 53.4 ± 7.3 % dose kg/100 g and the “Uptake in Liver” value ([2]; 30 min) was 65.2 ± 19.4 % dose kg/100 g. The “Uptake in Lung” value ([2]; 30 min) was 9.6 ± 6.6 % dose kg/100 g, the “Uptake in Prostate” value ([2]; 30 min) was 5.9 ± 2.5 % dose kg/100 g and the “Uptake in Skeletal Muscle” value ([2]; 30 min) was 2.5 ± 1.5 % dose kg/100 g. For the same compound, the “Uptake in Tumor” value ([2]; 30 min) was 4.8 ± 1.6 % dose kg/100 g, the “Uptake in Blood” value ([2]; 60 min) was 2.2 ± 1.0 % dose kg/100 g and the “Uptake in Brain” value ([2]; 60 min) was 1.7 ± 0.6 % dose kg/100 g. For the same compound, the “Uptake in Heart” value ([2]; 60 min) was 9.1 ± 2.5 % dose kg/100 g, the “Uptake in Kidney” value ([2]; 60 min) was 41.5 ± 15.0 % dose kg/100 g and the “Uptake in Liver” value ([2]; 60 min) was 67.1 ± 49.7 % dose kg/100 g. For the same compound, the “Uptake in Lung” value ([2]; 60 min) was 16.7 ± 3.7 % dose kg/100 g, the “Uptake in Prostate” value ([2]; 60 min) was 5.5 ± 2.6 % dose kg/100 g and the “Uptake in Skeletal Muscle” value ([2]; 60 min) was 2.8 ± 1.7 % dose kg/100 g. For the same compound, the “Uptake in Tumor” value ([2]; 60 min) was 6.7 ± 2.5 % dose kg/100 g, the “injected dose in the urinary bladder” value ([2]; at 30 min) was 1% and the In vitro phosphorylation (yeast choline kinase) was 55.9 ± 11.0%.
